For two molecules, Ka and rescue of core-fucosylation results are on record in patent US9765158B2, “Methods for preparation of fucose-linked site specific conjugates of proteins with toxins, adjuvants, detection labels and pharmacokinetic half life extenders” (Probiogen AG, priority 2011, dated 2017).

Test [1] addresses avidin (Gallus gallus, UniProt P02701). The settings on record: avidin-biotin complex; cited from earlier work.
For test [2], the system named is Antibody expressing CHO cells carrying the RMD transgene. Description: Fucose feeding experiment: rescue of core-fucosylation of secreted antibody, PSA lectin blotting. The test is classed as cell-based, Chinese hamster. The settings on record: media and feeds supplemented with 0.03 mM; cells grown 12 days; supernatant lectin blot (FIG. 4). The method, then:
Currently, Fucose analogs are not routinely used in cell culture and are thus still expensive. In order to identify the most cost efficient fucose analogue concentration, we needed to determine the minimum required amount of fucose analogue that was sufficient to completely rescue the fucosylation status of heterologously expressed antibodies secreted from RMD-co-expressing cells. Antibody expressing CHO cells carrying the RMD transgene were cultured in medium containing varying concentrations of fucose and fed with a feed mix supplemented with that same amount of fucose. Cells were grown for 12 days before harvesting the cell culture supernatant. The supernatants were analysed by lectin blotting using biotinylated PSA lectin (pisum sativum) that specifically recognizes the alpha-1,6-linked core-fucose. Lectin blotting was conducted using the Vecstatin Elite ABC Kit (Vector Labs, USA) according to the manufacturers instructions.

avidin, sequence (P02701 25-152, species assumed): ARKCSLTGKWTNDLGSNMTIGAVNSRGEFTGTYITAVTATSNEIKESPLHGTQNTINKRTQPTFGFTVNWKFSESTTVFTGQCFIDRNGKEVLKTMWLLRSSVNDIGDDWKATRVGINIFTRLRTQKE

For `O=C(O)CCCC[C@@H]1SC[C@@H]2NC(=O)N[C@@H]21` [biotin], the Ka in test [1] was 1015 M⁻¹.
In the case of `C[C@H](O)[C@@H](O)[C@@H](O)[C@H](O)C=O` [Fucose], the rescue of core-fucosylation entry in test [2] is given as “almost complete rescue”.
